Results on five molecules are retold here after patent US20050124665A1, “Pharmaceutical compositions” (priority 2001, published 2005).

One test relates to Sendai virus. Nature of the test: Effect on the replication of Sendai virus (virus yield by HAU titration in 37RC cells). The format is cell-based. To be noted: Respirovirus muris, in Primates; at 24 hours after infection; monkey kidney 37RC cells infected with SV (5 HAU/10^5 cells); virus yield in supernatant by HAU titration; read-out: ID50 (the 50% inhibitory dose/concentration). As for the experimental part: Methods: Monkey kidney 37RC cells were grown at 37° C. under the conditions described in Example 6 for T cells. The parainfluenza Sendai virus (SV) was grown in the allantoic cavity of 10-day-old embroynated eggs. Viral titre was expressed in haemagglutinating units (HAU) per ml; haemagglutin titration was done according to standard procedures using human 0 Rh+ erythrocytes, as described in C. Amici et al. (J. Virol. 68: 6890-6899, 1994). Confluent monolayers of 37RC cells were infected with SV virus (5 HAU/10^5 cells) for 1 h at 37° C., and then treated with different concentrations of test compounds. Virus yield at 24 hours after infection was determined in the supernatant of infected cells by HAU titration. The results from representative experiments are shown for CTC-73, 74, 83, 84 and 85 (as identified above) in FIGS. 1a, 2a, 3a, 4a and 5a, respectively.

The subject of a further test is NF-κB. To be noted: at the same concentration (125-500 μM); cited from earlier work.
Another test has as its target T1, HSF1 (Homo sapiens, UniProt Q00613).
T1 sequence (Q00613 1-529): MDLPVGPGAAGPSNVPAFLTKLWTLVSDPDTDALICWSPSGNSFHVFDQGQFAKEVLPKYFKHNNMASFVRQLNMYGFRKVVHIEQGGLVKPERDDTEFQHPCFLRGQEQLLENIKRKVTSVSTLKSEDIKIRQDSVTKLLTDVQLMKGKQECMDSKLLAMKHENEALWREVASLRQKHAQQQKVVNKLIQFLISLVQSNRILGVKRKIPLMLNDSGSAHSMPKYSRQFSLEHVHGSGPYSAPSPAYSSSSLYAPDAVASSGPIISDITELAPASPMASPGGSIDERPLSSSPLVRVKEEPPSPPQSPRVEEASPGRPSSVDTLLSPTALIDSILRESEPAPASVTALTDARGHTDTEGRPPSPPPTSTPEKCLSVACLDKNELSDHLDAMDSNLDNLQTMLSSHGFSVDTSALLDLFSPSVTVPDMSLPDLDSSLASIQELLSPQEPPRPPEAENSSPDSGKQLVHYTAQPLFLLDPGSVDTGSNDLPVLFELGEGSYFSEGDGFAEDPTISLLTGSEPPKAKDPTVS
To be noted: cited from earlier work.

`CCCCCC/C=C\CC1CC=CC1=O` (stereo not drawn) [CTC-83, ((Z)-5-Non-2-enyl)-cyclopent-2-enone]: the IC50 in the test with Sendai virus came out at 10 µM.

Turning to `CCCCCCCCC/C=C/CC1CC=CC1=O` (stereo not drawn) [CTC-85, ((E)-5-Dodec-2-enyl)-cyclopent-2-enone], the IC50 in the test on Sendai virus stood at 10 µM.

With `CCCCCCCCC/C=C\CC1CC=CC1=O` (stereo not drawn) [CTC-84, ((Z)-5-Dodec-2-enyl)-cyclopent-2-enone], in the test with Sendai virus, the IC50 was determined as 7 µM.

Regarding `CCCC/C=C\CC1CC=CC1=O` (stereo not drawn) [CTC-74, ((Z)-5-Hept-2-enyl)-cyclopent-2-enone], the IC50 with Sendai virus is 1 µM.

For `O=C1C=CCC1` [cyclopent-2-en-1-one], the “Block of NF-κB activation” value in the test with NF-κB is on record as “able to block NF-κB activation”. For the same molecule, the “Concentration able to activate HSF1 and trigger synthesis of HSP70” value on HSF1 was 125 to 500 µM.
